This is an account of results in US9957253B2, “Triaminopyrimidine compounds useful for preventing or treating malaria” (MMV MEDICINES FOR MALARIA VENTURE, priority 2014, dated 2018).

Structures can show the parent of a compound that is named as a salt. Where two headings read alike, the source gives them in different places.

Data set [1] deals with human CYP 2C9 (Homo sapiens, UniProt P11712). Kind of data set: CYP inhibition assay, CYP 2C9. Type of data set: in vitro ADME. How it is done:
This study was conducted using specific substrates for 5 major human CYP isozymes. These substrates were used as a cocktail (phenacetin, diclofenac, S-mephenytoin, bufuralol and midazolam which are predominantly metabolised by CYP 1A2, 2C9, 2C19, 2D6 and 3A4/5, respectively) at concentrations equivalent to their respective Km values. LC-MS-MS (MRM mode) was used to follow the formation of the CYP specific metabolites. A decrease in the formation of the metabolites in peak area to vehicle control was used to calculate the IC50 value. […] Test compound was used at 6 different concentrations ([…]) to estimate IC50.
The incubation was carried out in 96 deep well plates. Mixture of 180 μL of 20 mg/mL HLM and 90 μL of substrate cocktail solution was added to 15840 μL of phosphate buffer and 179 μL of this mixture was mixed with 1 μL of the test compound, inhibitor cocktail solution or vehicle in each well. The final concentration of DMSO:ACN in the assay mix was 0.3:0.7% v/v. The incubation plate was placed into the water bath and pre-warmed at 37° C. for 5 min before the reactions were started by the addition of 20 μL of 10 mmol/L NADPH solution in phosphate buffer. After the addition of NADPH, the incubation plate was incubated at 37° C. for a further 5 min. The reaction was quenched by the addition of 1 volume (200 μL) of cold ACN containing 3% formic acid and 40 nmol/L verapamil. The plates were kept on ice for 20 min and then centrifuged at 4000 rpm for 30 min to precipitate protein. The supernatant 180 μL was transferred to the analysis plate for LC/MS/MS analysis.

The subject of data set [2] is hepatocytes. Kind of data set: Metabolic stability assay (hepatocyte Clint), rat. Type of data set: in vitro ADME. Particulars: 1 μM compound. How it is done: Metabolic Stability Assay (Rat/Human Hepatocyte Clint)
Viability of cryopreserved hepatocytes was determined using trypan blue and the cell concentration was adjusted to 10^6 cells per mL with Leibovitz L-15 Buffer. 1 μM compound (in Acetonitrile; 0.01% DMSO) was incubated with 500 μL of hepatocytes (1 million cells per mL) in a NUNC plate. Reaction was stopped at different time points (0, 5, 15, 30, 60, 90 and 120 min) by addition of 3 volumes of chilled acetonitrile to 100 μL of reaction mixture and centrifuged at 4° C. for 15 min. Supernatants were analyzed using LC-MS/MS for substrate depletion.

For data set [3], the system named is chloroquine sensitive NF54 strain of P. falciparum. The data set is described as follows: In vitro antiplasmodial activity (SYBR I), NF54 strain. Particulars: Plasmodium falciparum. Format: cell-based, Plasmodium falciparum. How it is done: (§1) Measuring In Vitro Antiplasmodial Activity
(§2) The test samples were tested in duplicate on two separate occasions against chloroquine sensitive NF54 (MRA-1000, MR4, ATCC, Manassas, Va.) and chloroquine-resistant K1 strains of P. falciparum. A modified method of Trager and Jensen was employed to maintain continuous in vitro cultures of asexual blood stages of P. falciparum (Trageret al., 1976, Science, 193, 673-675). Quantitative assessment of antiplasmodial activity in vitro was determined using the SYBR I method as described earlier (Johnson et al., 2007, Antimicrob. Agents Chemother., 51, 1926-1933).
(§3) The percent inhibition with respect to the drug-free control was plotted against the logarithm of drug concentration. The growth inhibition curves were fitted by nonlinear regression using the sigmoidal dose-response (variable slope) formula to yield the concentration-response curves. […] Chloroquine diphosphate (CQ) (Sigma), artesunate (Sigma), and pyrimethamine were used as reference drugs in all experiments.

Data set [4] can be described thus: Prediction of human PK parameters (well stirred model). The conditions noted are these: from human hepatocyte Clint and fu. An excerpt:
Prediction of Human Pharmacokinetic (PK) Parameters Well stirred model was used for predicting human CL using human hepatocyte Clint and free fraction (fu) in human plasma. Liver blood flow rates, liver weights, hepatocellularity and in vitro in vivo correlation/extrapolation (IVIVC/E) templates routinely employed (Smith et al., Pharmacokinetics and Metabolism in Drug Design, Methods and Principles in Medicinal Chemistry Volume 13, 2004, Wiley-VCH, Weinheim, Germany) were used for prediction.

The nature of data set [5]: Plasma protein binding assay (equilibrium dialysis), rat. Type of data set: in vitro ADME. How it is done:
Plasma Protein Binding Assay
Protein binding is measured using the equilibrium dialysis technique. Compound is added to 10% plasma giving a concentration of 20 μM and dialysed with isotonic buffer for 18 hours at 37° C. The plasma and buffer solutions are analysed using generic LCUVMS and the first apparent binding constant for the compound derived. The binding constant is then used to determine the % free in 100% plasma.
On the technique in general: Equilibrium dialysis compares concentrations on both sides of a semipermeable membrane.

Data set [6] is described as follows: Prediction of hepatic blood clearance (well stirred model), rat.
The test system of data set [7] is chloroquine-resistant K1 strain of P. falciparum. The data set is described as follows: In vitro antiplasmodial activity (SYBR I), K1 strain. Format: cell-based, Plasmodium falciparum. The conditions noted are these: Plasmodium falciparum. How it is done: as §1, §2, §3
In data set [8] the target is T1, human CYP 1A2 (Homo sapiens, UniProt P05177).
T1 sequence (P05177 1-516): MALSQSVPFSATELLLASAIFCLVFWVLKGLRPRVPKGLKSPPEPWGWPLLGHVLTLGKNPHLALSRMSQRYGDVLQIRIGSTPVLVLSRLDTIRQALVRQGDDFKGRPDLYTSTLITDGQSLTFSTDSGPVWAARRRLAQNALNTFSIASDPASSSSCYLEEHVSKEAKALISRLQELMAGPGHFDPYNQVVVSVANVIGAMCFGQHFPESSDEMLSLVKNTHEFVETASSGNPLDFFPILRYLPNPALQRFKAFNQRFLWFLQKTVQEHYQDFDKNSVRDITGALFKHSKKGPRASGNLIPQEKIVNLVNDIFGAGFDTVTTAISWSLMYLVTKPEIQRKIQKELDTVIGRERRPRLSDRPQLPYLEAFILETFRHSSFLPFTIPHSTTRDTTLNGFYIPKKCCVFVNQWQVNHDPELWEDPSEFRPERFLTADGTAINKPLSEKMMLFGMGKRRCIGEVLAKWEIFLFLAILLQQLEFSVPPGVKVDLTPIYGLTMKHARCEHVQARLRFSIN
Kind of data set: Time dependent CYP inhibition assay, CYP 1A2. Format: in vitro ADME.

The target in data set [9] is CYP3A4 (Homo sapiens, UniProt P08684). The data set is described as follows: Time dependent CYP inhibition assay, CYP 3A4. Format: in vitro ADME.
Data set [10] has as its target T2, human CYP 2D6 (Homo sapiens, UniProt P10635).
T2 construct: Mixture of 180 μL of 20 mg/mL HLM and 90 μL of substrate cocktail solution; from tissue; host or cells: human liver microsomes (HLM)
The data set is described as follows: Time dependent CYP inhibition assay, CYP 2D6. Format: in vitro ADME.

The mark [11] stands for this setting: human liver microsomes, substrate cocktail, read-out: IC50 CYP 2C9.
Where [12] appears, read: NF54 strain, chloroquine sensitive, read-out: Pf IC50—NF54.
The mark [13] stands for this setting: K1 strain, chloroquine-resistant, read-out: Pf IC50—K1.

Chain of CYP3A4 (P08684 whole entry): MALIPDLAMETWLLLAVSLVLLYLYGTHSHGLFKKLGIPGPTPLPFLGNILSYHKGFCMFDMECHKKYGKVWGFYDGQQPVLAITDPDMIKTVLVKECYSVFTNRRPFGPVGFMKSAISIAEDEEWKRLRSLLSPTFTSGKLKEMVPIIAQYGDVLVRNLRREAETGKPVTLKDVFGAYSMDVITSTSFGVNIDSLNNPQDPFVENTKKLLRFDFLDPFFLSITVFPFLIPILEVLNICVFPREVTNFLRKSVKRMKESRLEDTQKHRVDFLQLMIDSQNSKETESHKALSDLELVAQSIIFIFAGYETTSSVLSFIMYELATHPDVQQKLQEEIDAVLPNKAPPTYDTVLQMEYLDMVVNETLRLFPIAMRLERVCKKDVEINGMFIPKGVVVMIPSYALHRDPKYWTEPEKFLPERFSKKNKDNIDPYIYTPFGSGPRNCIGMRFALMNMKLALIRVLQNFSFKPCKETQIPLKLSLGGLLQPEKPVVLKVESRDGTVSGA
Chain of human CYP 2C9 (P11712 whole entry): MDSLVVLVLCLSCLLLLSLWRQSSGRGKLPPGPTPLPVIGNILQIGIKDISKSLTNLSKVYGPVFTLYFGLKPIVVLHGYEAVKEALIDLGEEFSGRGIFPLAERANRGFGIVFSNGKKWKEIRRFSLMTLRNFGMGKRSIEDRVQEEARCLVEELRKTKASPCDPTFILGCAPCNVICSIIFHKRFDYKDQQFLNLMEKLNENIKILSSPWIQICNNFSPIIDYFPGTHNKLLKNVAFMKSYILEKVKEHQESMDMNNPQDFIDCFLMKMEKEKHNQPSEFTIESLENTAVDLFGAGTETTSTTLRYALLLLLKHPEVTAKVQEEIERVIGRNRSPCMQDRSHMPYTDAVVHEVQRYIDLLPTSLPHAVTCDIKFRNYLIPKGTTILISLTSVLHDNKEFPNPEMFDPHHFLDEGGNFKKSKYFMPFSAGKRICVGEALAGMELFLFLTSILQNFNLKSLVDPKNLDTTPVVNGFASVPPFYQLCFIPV
T2 sequence (P10635 whole entry): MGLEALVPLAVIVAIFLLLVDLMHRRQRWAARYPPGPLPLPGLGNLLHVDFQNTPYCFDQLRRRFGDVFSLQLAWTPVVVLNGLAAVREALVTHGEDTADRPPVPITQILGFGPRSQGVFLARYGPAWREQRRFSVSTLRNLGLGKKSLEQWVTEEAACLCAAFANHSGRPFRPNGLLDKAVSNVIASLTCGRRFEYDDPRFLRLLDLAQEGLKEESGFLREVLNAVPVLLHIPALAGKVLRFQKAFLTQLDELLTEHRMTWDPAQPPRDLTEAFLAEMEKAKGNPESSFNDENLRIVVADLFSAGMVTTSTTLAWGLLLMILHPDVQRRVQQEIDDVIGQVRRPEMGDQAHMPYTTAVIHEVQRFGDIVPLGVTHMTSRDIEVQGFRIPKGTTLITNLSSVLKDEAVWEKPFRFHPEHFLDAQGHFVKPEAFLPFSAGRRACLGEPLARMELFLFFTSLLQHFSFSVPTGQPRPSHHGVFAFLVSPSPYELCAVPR

What is called IC50 is the concentration at which inhibition is half-maximal. On to `CCc1cc(Nc2ncc(N3CCN[C@H](C)C3)c(Nc3cc(C)n(C)n3)n2)nc(C)c1F` [Example 7, (R)—N4-(1,5-dimethyl-1H-pyrazol-3-yl)-N2-(4-ethyl-5-fluoro-6-methylpyridin-2-yl)-5-(3-methylpiperazin-1-yl)pyrimidine-2,4-diamine dihydrochloride], for which the IC50 is greater than 30 µM in [1]; 0.027 µM in data set [3] (NF54, read-out: Pf IC50—NF54); 0.045 µM in data set [7] (K1, read-out: Pf IC50—K1); greater than 56 µM in data set [8]; greater than 56 µM in [9]; greater than 56 µM in data set [10]. The “Hep. Clint” value in data set [2] was 5.6 μl/min/1E6. For the same compound, the “Predicted CLh blood” value in data set [4] is 3.30 mL/min/kg; in data set [6] it was 24.20 mL/min/kg. The compound further had a Fup in data set [5] of 0.06.

With `Cc1nc(Nc2ncc(N3CCN[C@H](C)C3)c(Nc3cnn(C)n3)n2)cc(C2CC2)c1Cl` [Example 10, (R)—N2-(5-chloro-4-cyclopropyl-6-methylpyridin-2-yl)-N4-(2-methyl-2H-1,2,3-triazol-4-yl)-5-(3-methylpiperazin-1-yl)pyrimidine-2,4-diamine dihydochloride], the IC50 in [1] (setting [11]) is greater than 30 µM; in data set [3] (setting [12]), 0.013 µM; in [7] (setting [13]) it was 0.019 µM; in data set [8] it was greater than 56 µM; in data set [9] it was greater than 56 µM; in data set [10], greater than 56 µM. Also, the “Hep. Clint” value in [2] is recorded as 8.3 μl/min/1E6. Further, the “Predicted CLh blood” value in [4] is 3.10 mL/min/kg; in data set [6], 16.10 mL/min/kg. The Fup in [5] amounted to 0.04.

`Cc1nc(Nc2ncc(N3CCN(C)[C@H](C)C3)c(Nc3cc(C)n(C)n3)n2)cc(C2CC2)c1F` [Example 13, (R)—N2-(4-cyclopropyl-5-fluoro-6-methylpyridin-2-yl)-N4-(1,5-dimethyl-1H-pyrazol-3-yl)-5-(3,4-dimethylpiperazin-1-yl)pyrimidine-2,4-diamine]: the IC50 in data set [1] (setting [11]) was greater than 30 µM; in data set [3] (setting [12]), 0.009 µM; in [7] (setting [13]) it was 0.015 µM; in data set [8], greater than 56 µM; in data set [9] it was greater than 56 µM; in [10], greater than 56 µM. In addition, the “Hep. Clint” value in data set [2] was determined as 11.3 μl/min/1E6. For the same compound, the entries for the “Predicted CLh blood” value in data set [4] and in [6] were 4.80 mL/min/kg and 18.80 mL/min/kg, respectively. The compound also registered a Fup in data set [5] of 0.04.
